The CheMixHub viscosity set

Assay: xn = mol fraction of the nth substance listed

CCCCN + CCCCCCCO
viscosity [mPa·s], 101.33 kPa
Conditions	303.15 K	313.15 K	323.15 K
x1 = 0.0997	4.157	3.079	2.366
x1 = 0.122	3.964	2.931	–
x1 = 0.1998	3.439	2.557	–
x1 = 0.201	3.328	2.535	1.993
x1 = 0.2914	2.866	2.134	–
x1 = 0.3	2.671	2.069	1.627
x1 = 0.4035	2.125	1.684	1.346
x1 = 0.4133	2.169	1.636	–
x1 = 0.4897	1.797	1.363	–
x1 = 0.5	1.669	1.336	1.094
x1 = 0.6006	1.294	1.056	0.879
x1 = 0.6172	1.284	0.9879	–
x1 = 0.7002	0.975	0.797	0.676
x1 = 0.7147	0.9851	0.7769	–
x1 = 0.8001	0.77	0.655	0.563
x1 = 0.8091	0.761	0.6198	–
x1 = 0.8999	0.606	0.518	0.451
x1 = 0.907	0.5793	0.4903	–

CCCC(=O)OCC(COC(=O)CCC)OC(=O)CCC + CCCCCCO
viscosity [mPa·s], 101.33 kPa
Conditions	x1 = 0.1	x1 = 0.2	x1 = 0.3	x1 = 0.4	x1 = 0.5	x1 = 0.6	x1 = 0.7	x1 = 0.8	x1 = 0.9
298 K	4	4.09	4.3	4.65	5.05	5.56	6.15	6.84	7.68
303 K	3.47	3.54	3.72	4	4.36	4.8	5.27	5.86	6.54
308 K	3.02	3.08	3.26	3.49	3.79	4.15	4.57	5.07	5.63
313 K	2.65	2.71	2.85	3.07	3.33	3.64	4	4.42	4.9

CCCCN + CCCCCCO
viscosity [mPa·s], 101.33 kPa
Conditions	303.15 K	313.15 K	323.15 K
x1 = 0.099	3.27	2.673	–
x1 = 0.1002	3.164	2.411	1.888
x1 = 0.2005	2.593	2.026	1.608
x1 = 0.2079	2.728	2.202	–
x1 = 0.2888	2.334	1.906	–
x1 = 0.3001	2.082	1.642	1.322
x1 = 0.4004	1.701	1.356	1.113
x1 = 0.414	1.79	1.47	–
x1 = 0.5002	1.371	1.12	0.923
x1 = 0.5223	1.39	1.161	–
x1 = 0.5987	1.155	0.9887	–
x1 = 0.6001	1.105	0.909	0.765
x1 = 0.6999	0.906	0.759	0.648
x1 = 0.7197	0.8668	0.754	–
x1 = 0.8001	0.729	0.622	0.537
x1 = 0.8124	0.6995	0.611	–
x1 = 0.8998	0.573	0.494	0.433
x1 = 0.9046	0.5625	0.4944	–

CCCCCCCCCC(=O)OCC + CCCCCO
viscosity [mPa·s], 100 kPa
Conditions	x1 = 0.1005	x1 = 0.201	x1 = 0.3	x1 = 0.4	x1 = 0.498	x1 = 0.5999	x1 = 0.7009	x1 = 0.7997	x1 = 0.8996
293.15 K	3.246	2.808	2.563	2.417	2.33	2.29	2.258	2.259	2.289
298.15 K	2.839	2.481	2.277	2.156	2.086	2.052	2.031	2.036	2.061
303.15 K	2.493	2.202	2.036	1.943	1.878	1.852	1.834	1.842	1.866
308.15 K	2.218	1.965	1.827	1.744	1.698	1.683	1.668	1.676	1.702
313.15 K	1.966	1.762	1.648	1.581	1.543	1.529	1.522	1.536	1.558
318.15 K	1.823	1.586	1.492	1.438	1.408	1.396	1.396	1.408	1.432

CCCCN + CCCCCO
viscosity [mPa·s], 101.33 kPa
Conditions	303.15 K	313.15 K	323.15 K
x1 = 0.097	2.5	2.042	–
x1 = 0.102	2.52	1.956	1.551
x1 = 0.1887	2.182	1.761	–
x1 = 0.2002	2.086	1.639	1.322
x1 = 0.2883	1.842	1.49	–
x1 = 0.2994	1.72	1.381	1.122
x1 = 0.388	1.53	1.264	–
x1 = 0.4012	1.431	1.162	0.957
x1 = 0.5	1.19	0.976	0.816
x1 = 0.5146	1.18	0.9969	–
x1 = 0.6008	0.996	0.829	0.697
x1 = 0.6173	0.9476	0.8283	–
x1 = 0.6995	0.819	0.693	0.592
x1 = 0.7066	0.7962	0.6999	–
x1 = 0.8002	0.68	0.583	0.505
x1 = 0.8075	0.6516	0.5757	–
x1 = 0.8845	0.559	0.4945	–
x1 = 0.8997	0.574	0.498	0.435

O=C(O)C(Cl)(Cl)Cl + CCCCCOC(C)=O
323.15 K, 101 kPa
Conditions	viscosity [mPa·s]
x2 = 0.2135	3.573
x2 = 0.4325	2.146
x2 = 0.6234	1.358
x2 = 0.8421	0.807

O=[N+]([O-])c1ccc(O)cc1 + CCCCCOC(C)=O
Conditions	viscosity [mPa·s]
298.15 K, 101 kPa, x1 = 0.5	1.564
